Data: patent US20190201494A1, “COMPOSITIONS AND METHODS FOR TREATING NICOTINE WITHDRAWAL” (STC UNM, priority 2016, published 2019)
“Also recorded” adds a separate entry of the source.

Experiments:
[1] = system: smokers, 36 hours of smoking abstinence; assay: Post-spray symptom-specific subjective ratings (0-10) of pain, burn, taste (Example 2); type: in vivo, human
Experimental: Additional outcome measures included safety measures, i.e., post-spray symptom-specific subjective ratings and adverse events. Post-spray symptom-specific subjective ratings (0-10) of burn, pain, cough, and taste were collected after each spray round. Administration instructions were one spray in each nostril every three minutes for the total of six sprays. […] Adverse events were recorded and collected following the completion of every session as well as completion of the entire study.
Placebo contained 8.7% NaCl. Per FDA approved protocol, the product was prepared in a biosafety cabinet of UNM Translational Radiopharmacy. Drug Preparation occurred 30 minutes before administration. […] or placebo was placed in a 10 mL amber glass bottle (Gerresheimer AG, Düsseldorf, Germany), which was capped with a 10 mg sterile nasal pump (Aero Pump GmbH, Hochheim, Germany). Assembled product was primed per manufacturer's recommendations before 0.6 ml volume was administered to study participants. In a randomized fashion, study nurse administered one spray in each nostril every three minutes for the total of six sprays of either insulin or placebo. As each spray delivers 0.1 ml of fluid, and the concentration of insulin in Novolin R is 100 IU/mL, administering six sprays delivers 60 IU of insulin.
Random coefficient models were constructed for analyzing study outcomes. Treatment, time, treatment by time interaction, and sequence were included as fixed effects. Time nested within subjects, and time nested within treatment nested within subjects were included as random effects. Adverse events are presented in a descriptive fashion. No adjustment for multiple tests was made; all p values are reported at their nominal level.

[2] = system: overnight abstinent smokers; assay: Questionnaire on Smoking Urges Brief ratings, overnight abstinence with Trier Social Stress Test (Example 1, parallel study); type: in vivo, human
Experimental: Session 2 methodology and results are presented in this publication.
Subjects started their overnight abstinence at 8 PM the night before reporting to the University of New Mexico Clinical and Translational Science Center. At 8 AM the following day, abstinence from smoking was confirmed with a CO reading on a coVita piCO+ breathalyzer less than 50% of their baseline CO recorded at intake. […] Exposure to nicotine was analyzed by quantitative liquid chromatography-tandem mass spectrometry. Cutoff for nicotine was 2 ng/mL for nicotine.
Following negative urine drug and pregnancy tests, at 8:30 AM, subjects completed their morning assessment of smoking urges and mood. A salivary cortisol sample was also taken at this time. They were then provided breakfast (a slice of banana bread, one apple, and two cheese sticks), which they had to eat entirely. The rest of the morning, subjects watched and read emotionally neutral movies and literature. At 11:45 AM, a study nurse inserted the intravenous line, completed a point-of-care (POC) glucose check and nares assessment.
Intranasal spray administration of insulin or placebo occurred at 12:30 PM. The purpose of the spacing time between morning check-in and nasal spray administration was stabilization of postprandial insulin levels. In a randomized fashion, the study nurse administered one spray in each nostril every three minutes for the total of six sprays of either insulin or placebo. Instructions to perform the Trier Social Stress Test were given at 13:20, and speech delivery occurred 13:30. Briefly, the Trier Social Stress Test^13 is a standardized laboratory stressor consisting of a free speech and a mental arithmetic task in front of an audience. Participants were introduced to the task and instructed to prepare a 5-minute presentation in which they were to promote their candidacy for a job. The speech was delivered after a 10-minute preparation period. Thereafter, participants were introduced to the mental arithmetic task, also standing in front of the audience and a self-projecting television screen. Subjects were required to count backwards from 2023 in steps of 17 as fast and accurately as possible for five minutes; upon making a mistake, subjects were asked to stop and start again at 2023. At every post-stress timepoint (13:40, 13:50, 14:00, 14:10, and 14:40), study nurses checked POC glucose to ensure euglycemia. After the last time point at 14:40, subjects ate a snack, had their glucose level checked, received another nares exam, and were discharged from the clinic at 16:00.
Subjective measures included the Questionnaire on Smoking Urges (QSU) Brief Form and Positive and Negative Affect Schedule (PANAS). Urges to smoke were rated using the 10-item QSU Brief Form^14 that consists of 10-questions. The answers are scored from 1 (strongly disagree) to 7 (strongly agree). These questions are the basis for the two factor derived subscales. Factor 1 subscale reflects a strong desire and intention to smoke with smoking perceived as rewarding. Factor 2 subscale reflects an anticipation of relief from negative affect with an urgent desire to smoke. Study data analysis included evaluations of both factors. The PANAS (Watson et al., 1988. J Pers Soc Psychol 54(6):1063-1070) consists of 10 negative and 10 positive mood terms rated on five-point Likert-type response scales from 1 (very slightly or not at all) to 5 (extremely). Positive and negative scale scores each range between 10 and 50. The PANAS was chosen as a composite measure of self-reported positive and negative affect. Subjective measures were taken at 08:30, 12:20, 13:00, 13:40, 13:50, 14:00, 14:10 and 14:40.
Placebo contained normal saline (0.9% NaCl). The product was prepared in a biosafety cabinet 30 minutes before administration. Insulin or placebo was placed in a 10 mL amber glass bottle (Gerresheimer AG, Düsseldorf, Germany), which was capped with a 10 mg sterile nasal pump (Aero Pump GmbH, Hochheim, Germany). […]

[3] = vs 8.7% NaCl placebo, scale 0-10, three spray rounds, p≤0.05

intranasal insulin: bulk human Regular insulin (U100 Novolin R, Novo Nordisk US), 100 IU/ml, six nasal sprays delivering 60 IU
“taste” rating, interaction with treatment, b ([1]; SE(b)=0.10, z=−0.75, p=0.45, not significant): −0.07
“pain” rating, treatment×spray number, b ([1]; SE(b)=0.16, z=−0.47, p=0.63): −0.07
“burn” rating, interaction with treatment, b ([1]; SE(b)=0.17, z=1.23, p=0.22, not significant): 0.21
“pain” rating, treatment, b ([1]; SE(b)=0.31, z=−1.17, p=0.24): −0.36
“burn” rating, treatment, b ([1]; SE(b)=0.43, z=−2.34, p≤0.05): −1.01
Subjective spray rating of “pain”, effect of treatment ([1]; vs 8.7% NaCl placebo, scale 0-10, three spray rounds): No group differences were detected
Subjective spray rating of “burn”, effect of treatment [1, 3]: Main effect of treatment was significant; also recorded: There was an effect of treatment
Subjective spray rating of “taste”, effect of treatment [1, 3]: Main effect of treatment was significant; also recorded: there was an effect of treatment
Subjective spray rating of “burn”, effect of treatment ([1]; vs 8.7% NaCl placebo, scale 0-10, three spray rounds, p≤0.05, listed as Intranasal insulin): notable burning sensation
Smoking urges / nicotine cravings (Questionnaire on Smoking Urges Brief) compared to placebo ([2]; 60 IU intranasal, overnight abstinence, through Trier Social Stress Test, p≤0.05): decreased significantly; also recorded: significant reduction of nicotine cravings
Smoking urges, treatment×time interaction, b ([2]; 60 IU vs placebo, SE(b)=0.032, z=1.93, p≤0.05): 0.064
Smoking urges, main effect of treatment, b ([2]; 60 IU vs placebo, SE(b)=4.81, z=1.39, p=0.16, not significant): 6.66
QSU-Brief Factor 2 (anticipation of relief from negative affect) compared to placebo ([2]; 60 IU, overnight abstinence, interaction non-significant): no effect; also recorded: not Factor 2 scale
QSU-Brief Factor 1 (strong desire and intention to smoke) compared to placebo ([2]; 60 IU, overnight abstinence, p≤0.05): overall decrease in smoking urges was driven by intranasal insulin's effect on Factor 1
QSU-Brief Factor 1 (strong desire and intention to smoke) compared to placebo ([2]; 60 IU, overnight abstinence, p≤0.05, listed as Intranasal insulin): significantly decreased
Duration of effect on QSU-Brief Factor 1 ([2]; 60 IU, detected immediately following treatment administration): ≥ 100 min
QSU-Brief Factor 2, treatment×time interaction, b ([2]; SE(b)=0.01, z=1.48, p=0.14): 0.02
QSU-Brief Factor 1, treatment×time interaction, b ([2]; SE(b)=0.018, z=2.15, p≤0.05): 0.039
QSU-Brief Factor 2, main effect of treatment, b ([2]; SE(b)=2.37, z=1.58, p=0.11): 3.76
QSU-Brief Factor 1, main effect of treatment, b ([2]; SE(b)=2.61, z=1.36, p=0.17): 3.55
